From patent US20210220392A1, “MOLECULAR HYDROGEN-CONTAINING COMPOSITION FOR PREVENTION AND/OR IMPROVEMENT OF INFLAMMATORY BOWEL DISEASE” (MiZ Company Limited, priority 2020, published 2021)

Columns and labels:
[1] = known; versus H2; cited from earlier work
[2] = room temperature, normal pressure; also printed as 1.6 mg/L; cited from earlier work
[3] = test system: ulcerative colitis; assay: A case of ulcerative colitis improved by hydrogen inhalation (single patient case report); format: in vivo, human
Protocol: From around January 2018, the patient was taking a therapeutic agent for ulcerative colitis but was distressed because the disease was not cured with cyclic improvement and worsening. Additionally, the patient became depressed and gloomy, suffering insomnia and weight loss, because of the prolonged symptoms of ulcerative colitis. […] The patient drank two 500 mL PET bottles of hydrogen water per day.

[4] = around June 9, six days after initiation of hydrogen gas inhalation plus hydrogen water

Row | Compound | superoxide eliminating effect compared with H2 [1] | concentration of hydrogen dissolved in water [2] | general condition [3, 4] | sleep condition [3, 4] | body weight ([3]; by Aug. 22, 2019) | hemorrhage ([3]; by Aug. 22, 2019 (end of inhalation therapy)) | hemorrhage ([3]; by Jul. 31, 2019) | frequency of defecation and patient's vigor ([3]; by Jun. 17, 2019) | stool consistency (had been watery) ([3]; by Jun. 17, 2019) | hemorrhage during defecation ([3]; by Jun. 17, 2019 (inhalation started Jun. 3, 2019)) | endoscopy: hemorrhage in the rectum (had been filled with blood) ([3]; endoscopy on Sep. 25, 2019) | endoscopy: wall of the small and large intestines ([3]; endoscopy on Sep. 25, 2019) | endoscopy: several polyps found in the stomach ([3]; endoscopy on Sep. 25, 2019, inhalation of hydrogen gas and drinking of hydrogen water) | volume of melena during defecation ([3]; person, ulcerative colitis, around June 9, six days after initiation of hydrogen gas inhalation (approx. 5.0%, 1-3 h/day) plus hydrogen water 7 ppm, two 500 mL bottles/day)
1 | [2H][2H] [D2, deuterium] | stronger | – | – | – | – | – | – | – | – | – | – | – | – | –
2 | [HH] [hydrogen gas, molecular hydrogen] | – | approximately 1.6 ppm | recovered | improved | increased to the healthy weight before the onset of the disease | no hemorrhage was found | no hemorrhage was found except that blood was attached to the stool only on the day after the patient had drunk alcohol | returned to the levels before the onset of the disease | became solid | further decreased | no hemorrhage in the rectum | recovered completely | disappeared | began to decrease
